Key:
A2A adenosine receptor = target: T1, A2A adenosine receptor (Homo sapiens, UniProt P29274); assay: Radioligand binding test ([3H]CGS21680 displacement, hA2A HEK-293 cell membrane); conditions: calculated from IC50 by Cheng and Prusoff equation; [3H]CGS21680 25 nM, Km 22 nM; 25° C., 90 minutes
T1 construct: purchased PerkinElmer Research Products (Boston, Mass.); host or cells: HEK-293 cells, stably transfected; membrane preparation
Experimental: [3H]CGS21680 (2-[p-(2-carboxyethyl)phenylethylamino]-5′-N-ethylformamidoadenosine, [carboxy-1-ethyl-3H(N)]; 250 μCi) was purchased from PerkinElmer Research Products (Boston, Mass.).
Cell membrane stably transfected with (human) A2A adenosine receptor was prepared in HEK-293 cells. The cell membrane was obtained from PerkinElmer Research Products (Boston, Mass.).
CGS21680 (2-[p-(2-carboxyethyl)phenylethylamino]-5′-N-ethylformamidoadenosine) was purchased from Selleck (Shanghai, CN).
The A2A adenosine receptors used were all expressed in the cell membrane. […] The specific binding percentage of [3H]CGS21680 was calculated according to the CPM value, % specific binding of [3H]CGS21680=(CPMsample−CPMLow Control)/(CPMHigh Control−CPMLow Control)*100, in which
High Control was 0.5% DMSO, Low Control was 100 μM CGS21680. The IC50 value was calculated based on the compound concentration and the specific binding percentage of [3H]CGS21680 by curve fitting.
The inhibition constant (Ki) value was calculated from the IC50 value according to the Cheng and Prusoff equation, Ki=IC50/(1+[S]/Km), in which [S] was the concentration of the radioligand (25 nM), and Km was the human A2AAR dissociation constant (22 nM) of [3H]CGS21680. The inhibition constant Ki values for Compounds 1 to 20 of the present invention binding to A2A adenosine receptor were shown in Table 1.

blood-brain barrier = assay: Animal experiment of blood-brain barrier opening (FITC-Dextran in brain of SD rats); format: in vivo
Experimental: Fluorescein-labeled dextran FITC-Dextran (CAS: 60842-46-8) with a molecular weight of 10,000 MW was purchased from […] (Shanghai) Chemical Industry Development Co., Ltd.; PBS solution and experimental animal SD rats were obtained from commercial sources. FITC-Dextran solution was prepared with PBS to obtain six concentration gradients (0.001, 0.01, 0.1, 1, 0.5, 10 μg/ml), and a FITC-Dextran concentration standard curve was prepared by using microplate reader (λex=490 nm, λem=520 nm); 10 mg/ml FITC-Dextran solution was separately prepared, Compound 5 was added to PBS solution to make 1 mg/ml solution, 1 ml of 10 mg/ml FITC-Dextran solution and 1 ml of 1 mg/ml Compound 5 PBS solution were taken to make an administration solution; 1 ml of 10 mg/ml FITC-Dextran solution and 1 ml of PBS solution taken to make a blank control solution; 6 SD rats were injected with 2 ml of the administration solution respectively in the tail vein, while another 6 SD rats were injected with 2 ml of the blank control solution in the tail vein; after 30 minutes, the brain tissues of all SD rats were taken out, homogenized and centrifuged at 10,000 rpm for 15 minutes, and the supernatants were taken for testing; and a microplate reader (λex=490 nm, λem=520 nm) was used for the fluorescence detection of the solutions to be tested. […]

[1] = target: human adenosine receptor A2A (Homo sapiens, UniProt P29274); assay: Adenosine receptor A2A cAMP test (LANCE Ultra cAMP, hADORA2A-HEK293 cells); format: cell-based
Sequence of human adenosine receptor A2A (P29274 whole entry): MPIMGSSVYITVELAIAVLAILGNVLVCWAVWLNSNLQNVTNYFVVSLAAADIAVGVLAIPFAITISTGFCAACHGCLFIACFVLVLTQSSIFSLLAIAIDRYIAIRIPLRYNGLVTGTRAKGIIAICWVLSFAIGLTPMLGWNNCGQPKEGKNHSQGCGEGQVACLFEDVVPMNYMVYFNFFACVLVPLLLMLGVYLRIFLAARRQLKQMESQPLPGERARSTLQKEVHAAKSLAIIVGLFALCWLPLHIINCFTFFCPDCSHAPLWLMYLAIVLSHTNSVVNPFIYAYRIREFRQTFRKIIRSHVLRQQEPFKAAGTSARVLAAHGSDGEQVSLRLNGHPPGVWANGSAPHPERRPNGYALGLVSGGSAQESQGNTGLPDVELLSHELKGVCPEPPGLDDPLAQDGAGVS
Text: Experimental reagents and consumables: DMEM/F12, G418, Penicillin-Streptomycin, Versene Solution, HEPES, Hank's Buffered Saline Solution, PBS (pH 7.4, 1×, sterile), FBS, BSA Stabilizer 7.5%, Rolipram, NECA, were purchased from Gibico, Hyclone and Sigma, respectively. LANCE® Ultra cAMP kit (Eu-cAMP tracer, Ulight-anti-cAMP reagent, cAMP detection buffer) and hADORA2A-HEK293 cells were purchased from PerkinElmer Research Products (Boston, Mass.). All other reagents were of analytical grade and obtained from commercial sources. 384-well polypropylene microplate and 384-well white solid plate were purchased from Labcyte and Corning, respectively.
Cells stably expressing human adenosine receptor A2A (hADORA2A-HEK293 cells) were cultured in DMEM/F12 medium containing 10% FBS, 1× Penicillin-Streptomycin and 400 μg/ml G418 in a 37° C., 5% CO2 environment. Before the experiment, the cells were digested with Versene solution, and the cells were collected by centrifugation at 200 g at room temperature for 5 minutes, and finally resuspended with detection buffer (Hank's buffered saline solution, containing 5 mM HEPES, 0.1% BSA stabilizer and 10 μM Rolipram, pH 7.4). TECAN automated pipetting workstation was used to prepare a compound source plate by 3-fold diluting the compound in a 384-well polypropylene microplate with DMSO to form 11 concentration points, in which the 11 concentration points of the compound were 10 mM, 3.33 mM, 1.11 mM, 0.37 mM, 0.12 mM, 0.041 mM, 0.013 mM, 4.57×10^−3 mM, 1.52×10^−3 mM, 5×10^−4 mM and 1.7×10^−4 mM, respectively. Echo ultrasonic pipetting system (Labcyte) was used to transfer the test compound from the compound source plate to the detection plate, in which the volume of the compound transferred was 10 nl/well. The hADORA2A-HEK293 cell suspension was diluted with detection buffer to 30,000 cells/ml, and the cell suspension was transferred to the detection plate at a volume of 10 μl/well (300 cells/well). The detection plate was centrifuged at 150 g for 1 minute and pre-incubated at room temperature for 30 minutes. […] EnVison microplate reader (EnVision multimode plate reader, PerkinElmer) was used to test the level of cyclic adenosine monophosphate in the final solution (λex=320 nm, λem=665 nm & 615 nm). The EC50 (nM) value of the compound interacting with A2A adenosine receptor to stimulate the production of a level of cyclic adenosine monophosphate was calculated. The compound A2A receptor agonist titer was expressed as the EC50 (nM) value of the compound interacting with the A2A adenosine receptor to stimulate the production of a level of cyclic adenosine monophosphate.

T1 sequence (P29274 whole entry): as above

Row | Ki (A2A adenosine receptor) [nM] | melting point [°C] | hA2AAR agonist function (in words) ([1]; conclusion from cAMP test) | EC50 ([1]; hADORA2A-HEK293 cells, 300 cells/well, stimulation of cyclic adenosine monophosphate) [nM] | Structure (SMILES) | Opening of the blood-brain barrier (in words) (blood-brain barrier; SD rats, FITC-Dextran co-administered by tail vein, 30 minutes) | FITC-Dextran concentration in the brain of SD rats (blood-brain barrier; tail vein injection of 2 ml (10 mg/ml FITC-Dextran 10,000 MW + 1 mg/ml compound in PBS, 1:1), brain homogenate supernatant after 30 minutes, average of 6 rats, blank control 0.021) [µg/mL]
1 | 353 | 162 |  |  | OC[C@H]1O[C@@H](n2cnc3c(N/N=C/c4ccc(-c5ccc(Br)cc5)o4)ncnc32)[C@H](O)[C@@H]1O [Compound 5, (2R,3R,4S,5R)-2-{6-{2-{(E)-[5-(4-bromophenyl)furan-2-yl]methylene}hydrazino}-9H-purin-9-yl}-5-(hydroxymethyl)tetrahydrofuran-3,4-diol] | could open the blood-brain barrier | 
2 | 13.8 | 206 | hA2AAR agonists | 18.6 | OC[C@H]1O[C@@H](n2cnc3c(N/N=C/c4ccc(OCc5ccc(F)cc5)cc4)ncnc32)[C@H](O)[C@@H]1O [Compound 7, (2R,3R,4S,5R)-2-{6-{2-{(E)-4-[(4-fluorobenzyl)oxy]benzylidene}hydrazino}9H-purin-9-yl}-5-(hydroxymethyl)tetrahydrofuran-3,4-diol] |  | 0.057

Source: patent publication US20220380402A1, “6-HYDRAZINOADENOSINE COMPOUNDS WITH A2A ADENOSINE RECEPTOR AGONIST ACTIVITY” (ACADEMY OF MILITARY MEDICAL SCIENCES, priority 2019, published 2022)
